Results as given in patent US20050020550A1, “Selective testicular 11beta-HSD inhibitors and methods of use thereof” (priority 2003, published 2005).

Legend:
11β-HSD1 Reductase = molecular target: T1, 11β-HSD1 Reductase (Rattus norvegicus, UniProt P16232); assay: Inhibition of 11β-HSD1 reductase (Table 1); assay type: cell-based
T1 construct: an enzyme present in testicular Leydig cells; endogenous in cells; host or cells: freshly prepared rat Leydig cells

11β-HSD1 Dehydrogenase = molecular target: T2, 11β-HSD1 Dehydrogenase (Rattus norvegicus, UniProt P16232); assay: Inhibition of 11β-HSD1 dehydrogenase (Table 1); assay type: cell-based
T2 construct: an enzyme present in testicular Leydig cells; endogenous in cells; host or cells: freshly prepared rat Leydig cells
T2 sequence (P16232 whole entry): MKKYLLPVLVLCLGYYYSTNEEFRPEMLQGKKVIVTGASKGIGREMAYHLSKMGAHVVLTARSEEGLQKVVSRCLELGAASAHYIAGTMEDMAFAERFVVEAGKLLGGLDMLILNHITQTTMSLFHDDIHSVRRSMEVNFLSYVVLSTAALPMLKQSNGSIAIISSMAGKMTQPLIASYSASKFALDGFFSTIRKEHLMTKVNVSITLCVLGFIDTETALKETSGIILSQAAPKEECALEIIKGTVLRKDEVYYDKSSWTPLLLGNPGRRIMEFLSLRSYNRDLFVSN

11β-HSD2 Dehydrogenase = molecular target: T3, 11β-HSD2 Dehydrogenase (Homo sapiens, UniProt P80365); assay: Inhibition of 11β-HSD2 dehydrogenase (Table 1); assay type: biochemical
T3 sequence (P80365 1-405): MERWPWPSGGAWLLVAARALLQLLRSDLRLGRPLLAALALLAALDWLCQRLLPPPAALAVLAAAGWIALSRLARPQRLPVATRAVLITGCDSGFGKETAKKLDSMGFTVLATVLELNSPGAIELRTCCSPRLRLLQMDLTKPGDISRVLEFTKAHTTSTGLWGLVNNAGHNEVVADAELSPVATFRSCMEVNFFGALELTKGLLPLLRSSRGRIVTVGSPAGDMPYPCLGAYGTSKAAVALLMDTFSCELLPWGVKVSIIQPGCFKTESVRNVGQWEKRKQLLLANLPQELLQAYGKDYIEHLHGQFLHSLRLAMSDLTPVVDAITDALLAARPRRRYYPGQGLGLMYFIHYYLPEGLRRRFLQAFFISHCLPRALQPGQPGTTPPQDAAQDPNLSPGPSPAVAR

rat aortic rings = assay: Contractile response of rat aortic rings to phenylephrine; settings: rat aortic rings incubated with the steroid, compared to controls
Protocol: Male Sprague-Dawley (150-200 g) rats were anesthetized with pentobarbital (50 mg/kg IP), and a median sternotomy was performed followed by the rapid removal of the thoracic aorta. The adventitia was removed, but the endothelium was left intact. The aorta was cut into 2-3 mm rings and individual rings were placed into a single well of a twenty four well culture plate and incubated at 37° C. under 95% O2-5% CO2. Each well contained 1 mL of DMEM/F12 containing 1% fetal bovine serum, streptomycin (100 μg/ml), penicillin (100 units/ml) and amphotericin (0.25 μg/ml). Aortic rings were incubated for 24 hours prior to contractility measurements with the following combinations of steroids, and antisense/nonsense oligonucleotides (3 μmol/L): • Corticosterone (10 nmol/L)+11β-HSD2 antisense or 11β-HSD2 nonsense oligomer • Corticosterone (10 nmol/L)+11β-HSD1 antisense or 11β-HSD1 nonsense oligomer • In 11-dehydrocorticosterone experiments with vehicle alone • 11-dehydrocorticosterone (100 nmol/L)+11β-HSD1 Antisense or 11β-HSD1 nonsense oligomer
Antisense phosphorothioate oligonucleotides, targeted to block either 11β-HSD2 or 11β-HSD1 gene expression, were obtained from Research Genetics, Huntsville Ala. Antisense oligomers complementary to 20 bp sequences spanning the ribosome binding/translation start site were used. Oligomer sequences were: 5′-CATAACTGCCGTCCAACAGC-3′ (SEQ ID No.: 2) for 11β-HSD1 Antisense and 5′-AGCCCAGCGCTCCATGACTT-3′ (SEQ ID No. 3) for 11β-HSD2 antisense. In control experiments the corresponding sense sequence was used as the nonsense oligomer. Antisense and nonsense oligomers were added directly to each well at 20 μg/10:1 sterile H2O per well for a final concentration of 3 μmol/L.
For contraction measurements, aortic rings were suspended by tungsten wires with 1 g of tension and placed in a vessel bath containing serum free DMEM/F 12 media at 37° C. aerated with 95% O2-5% CO2, at pH 7.4. Vessels were equilibrated for 20 minutes and then tested with phenylephrine (1 nmol/L−10 μmol/L). Although phenylephrine is structurally not a catecholamine, it is considered to be a functional catecholamine as it activates […]. Due to its favorable stability characteristics, it is widely used as a catecholamine substitute in experiments of this nature. The intensity of contraction was assessed by use of a Narishige micromanipulator and model FT03 force transducer (Grass Instrument Co. West Warwick, R.I.). Measurements were recorded on computer using the Labview 4.1 Virtual Instrument System (National Instruments, Austin, Tex.).

T1 sequence (P16232 whole entry): as the sequence (P16232 whole entry) above

| Compound | 11β-HSD1 Reductase (inhibition) (11β-HSD1 Reductase) | 11β-HSD1 Dehydrogenase (inhibition) (11β-HSD1 Dehydrogenase) | 11β-HSD2 Dehydrogenase (inhibition) (11β-HSD2 Dehydrogenase) | effect of the steroid on contractile responses to phenylephrine (rat aortic rings) |
| --- | --- | --- | --- | --- |
| C[C@]12CC[C@H](O)C[C@@H]1CC[C@H]1[C@@H]3CC[C@H](O)[C@@]3(C)CC(=O)[C@@H]12 [3α,5α-reduced-11-keto-testosterone] | Selective Inhibitor | No Inhibition |  |  |
| C[C@]12CC[C@H](O)C[C@H]1CC[C@@H]1[C@H]2[C@@H](O)C[C@@]2(C)[C@@H]1CC[C@@H]2O [3α,5β-reduced- 11β-OH—testosterone] | No Inhibition | Moderate Inhibitor | No Inhibition |  |
| C[C@]12CC[C@H](O)C[C@H]1CC[C@@H]1[C@H]2[C@@H](O)C[C@@]2(C)[C@@H]1CC[C@@H]2O [3α,5α-reduced- 11β-OH—testosterone] | No Inhibition | Potent Inhibitor (Non-Selective) | Potent Inhibitor (Non-Selective) |  |
| C[C@H](CCC(=O)O)[C@H]1CC[C@H]2[C@@H]3[C@H](O)C[C@@H]4C[C@H](O)CC[C@]4(C)[C@H]3CC[C@]12C [chenodeoxycholic acid] | No Inhibition | Selective inhibitor | No Inhibition |  |
| C[C@]12CC[C@H](O)C[C@@H]1CC[C@@H]1[C@@H]2[C@@H](O)C[C@]2(C)[C@@H](C(=O)CO)CC[C@@H]12 [3α,5α-reduced- corticosterone] | No Inhibition | Potent Inhibitor | Potent Inhibitor |  |
| C[C@]12CC[C@H](O)C[C@H]1CC[C@@H]1[C@H]2[C@@H](O)C[C@]2(C)C(=O)CC[C@H]12 [3α,5α-reduced- 11β-OH—androstenedione] | No Inhibition | Moderate Inhibitor | Potent Inhibitor (Non-Selective) |  |
| C[C@]12CC[C@H](O)C[C@@H]1CC[C@H]1[C@@H]3CC[C@H](C(=O)CO)[C@@]3(C)CC(=O)[C@@H]12 [3α,5α-tetrahydro-11-dehydro-corticosterone] | Potent Inhibitor | No Inhibition | Potent Inhibitor |  |
| C[C@]12CCC(=O)C=C1CC[C@@H]1[C@H]2C(=O)C[C@]2(C)C(=O)CC[C@H]12 (stereo in doubt) [11-Keto-androstenedione] | Selective Inhibitor | No Inhibition | No Inhibition |  |
| CC(=O)[C@H]1CC[C@@H]2[C@@H]3CCC4=CC(=O)CC[C@]4(C)[C@@H]3[C@@H](O)C[C@]12C [11β-OH—progesterone] | No Inhibition | Potent Inhibitor (Non-Selective) |  |  |
| CC(=O)[C@H]1CC[C@@H]2[C@@H]3CC[C@@H]4C[C@@H](O)CC[C@]4(C)[C@@H]3C(=O)C[C@]12C [3α,5α-reduced-11-keto-progesterone] | Selective Inhibitor | No Inhibition | Potent Inhibitor |  |
| CC(=O)[C@H]1CC[C@@H]2[C@@H]3CC[C@@H]4C[C@@H](O)CC[C@]4(C)[C@@H]3[C@@H](O)C[C@]12C [3α,5β-reduced- 11β-OH—progesterone] | No Inhibition | Moderate Inhibitor | No Inhibition |  |
| C[C@]12CC[C@@H]3[C@@H]([C@@H](O)C[C@]4(C=O)[C@@H](C(=O)CO)CC[C@H]34)[C@@]1(C)CC[C@H](O)C2 [3α,5α-reduced aldosterone] | No Inhibition | Moderate Inhibitor | Potent Inhibitor |  |
| C[C@]12CC(=O)[C@H]3[C@@H](CCC4=CC(=O)CC[C@@]43C)[C@@H]1CC[C@@H]2C(=O)CO [11-dehydro-corticosterone, reference compound] |  |  |  | amplifies the contractile responses |
| C[C@]12CC[C@H](O)C[C@@H]1CC[C@@H]1[C@@H]2C(=O)C[C@]2(C)C(=O)CC[C@@H]12 [3α,5α-reduced-11-keto-androstenedione] | Selective Inhibitor | No Inhibition |  |  |
| C[C@]12C[C@H](O)[C@@H]3[C@@H](CCC4=CC(=O)CC[C@@]43C)[C@H]1CC[C@@H]2O [11β-OH—testosterone] | No Inhibition | Inhibitor (Non-Selective) | Inhibitor (Non-Selective) |  |
| C[C@]12CCC(=O)C[C@@H]1CC[C@@H]1[C@@H]2[C@@H](O)C[C@]2(C)[C@@H](C(=O)CO)CC[C@@H]12 [5α-dihydro- corticosterone] | No inhibition | Potent Inhibitor | Potent Inhibitor |  |
| C[C@]12CC(=O)[C@@H]3[C@@H](CCC4=CC(=O)CC[C@@]43C)[C@H]1CC[C@@H]2O [11-Keto-testosterone] | Selective Inhibitor | No Inhibition | No Inhibition |  |
| C[C@]12C[C@H](O)[C@H]3[C@@H](CCC4=CC(=O)CC[C@@]43C)[C@@H]1CC[C@@H]2C(=O)CO [corticosterone, reference compound] |  |  |  | amplified contractile responses |
| CC(=O)[C@H]1CC[C@@H]2[C@@H]3CC[C@@H]4C[C@@H](O)CC[C@]4(C)[C@@H]3[C@@H](O)C[C@]12C [3α,5α-reduced- 11β-OH—progesterone] | No Inhibition | Potent Inhibitor (Non-Selective) | Potent Inhibitor (Non-Selective) |  |
